Data set [1] deals with T1, human RGS14 RGS-box (wild-type) (Homo sapiens, UniProt O43566).
T1 construct: human RGS14 RGS-box (aa 46–195 of UniProt O43566); host or cells: E. coli
T1 sequence (O43566 46-195): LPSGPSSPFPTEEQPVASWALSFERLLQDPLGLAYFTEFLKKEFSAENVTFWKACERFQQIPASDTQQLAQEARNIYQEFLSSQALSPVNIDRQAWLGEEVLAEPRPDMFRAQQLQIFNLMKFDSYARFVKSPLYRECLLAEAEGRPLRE
In words: Transcreener GDP RGScreen fluorescence polarization assay of RGS14 RGS-box GAP activity on Gαi1(DM). Format: biochemical. The following applies: for IC50: Transcreener GDP RGScreen. An outline of the steps: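 Steady-state GTP hydrolysis by rate-altered double point-mutant Gαi1 was read by Transcreener GDP fluorescence polarization, with GTP conversion kept below 10% of maximum input. The E. coli-expressed, N-terminal His6-tagged wild-type RGS-boxes were RGS12 aa 695–843 and RGS14 aa 46–195.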
On the technique in general: In fluorescence polarisation assays a small probe gives low polarisation when free and higher when bound to something large.

The target in data set [2] is T2, cysteine-less RGS14 RGS-box protein (Homo sapiens, UniProt O43566, C100S/C183S).
T2 construct: human RGS14 RGS-box (aa 46–195 of UniProt O43566); host or cells: E. coli
T2 sequence (O43566 46-195 C100S/C183S): T1 sequence (O43566 46-195) with C55S, C138S
Put plainly: Transcreener GDP RGScreen assay with cysteine-less RGS14 RGS-box. Format: biochemical. The following applies: compared with wild-type RGS14 RGS-box. The text has this:
Given the earlier experience with screening hit CCG-4986 being a covalent modifier of RGS4 cysteine residues ([35]), we sought to exclude protein-thiol reactivity as a potential mechanism of action of the active compounds derived from the AtomNet virtual screening effort ([55]) and SAR campaign follow-ups. To address this possibility and screen out thiol-reactive hits, cysteine-lacking versions of recombinant proteins spanning the RGS-boxes of RGS14 and RGS12 were purified from E. coli cultures.
Reagents and protocols for the fluorescence anisotropy-based Transcreener GDP RGScreen assay using a rate-altered, double point-mutant, recombinant Gαi1 protein have been extensively described previously ([43], [44]); reactions were always performed so that total GTP converted over the time course was consistently less than 10% of reaction maximum input. Specific methods for its application in assessing RGS14 and RGS12 GAP activity are summarized as follows. Open-reading frames (ORFs) encoding wild-type versions of the human RGS14 RGS-box (aa 46–195 of UniProt O43566) and human RGS12 RGS-box (aa 695–843 of UniProt O14924) were each sub-cloned in-frame with an N-terminal hexahistidine (His6) expression tag in the plasmid pET30a, expressed in E. coli cultures, and then purified by nickel-nitriloacetate (Ni-NTA) and size-exclusion (Superdex 200) column chromatographies by GenScript using previously described methods ([35]). […]
Supplementary Figure S5. […] (A,B) Recombinant, cysteine residue-lacking (“-cys”) RGS14 RGS-box protein (panel A) and cysteine residue-lacking RGS12 RGS-box protein ([…]) were both observed, in a concentration-dependent fashion (indicated in ng/µL by color), to increase steady-state GDP production by 0.5 ng/µL Gai1(DM) protein in a 20 µL final reaction volume, as measured by the Transcreener® GDP-detection RGScreen™ assay and detected by the change in polarization (ΔmP) at each indicated time point (“enz” = Gai1(DM) protein a.k.a. […]

The target of data set [3] is T3, human RGS12 RGS-box (wild-type) (Homo sapiens, UniProt O14924).
T3 construct: human RGS12 RGS-box (aa 695–843 of UniProt O14924); host or cells: E. coli
T3 sequence (O14924 695-843): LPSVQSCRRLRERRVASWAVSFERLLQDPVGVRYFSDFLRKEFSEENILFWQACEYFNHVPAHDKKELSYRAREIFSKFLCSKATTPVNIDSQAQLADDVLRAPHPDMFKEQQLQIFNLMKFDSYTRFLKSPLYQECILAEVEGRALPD
In words: Transcreener GDP RGScreen fluorescence polarization assay of RGS12 RGS-box GAP activity on Gαi1(DM). In kind it is biochemical. Conditions: wild-type RGS12 RGS-box GAP activity, Gαi1(DM), read-out: RGS12 pIC50 (converted). The text has this: We previously described work with BellBrook Labs creating the Transcreener GDP RGScreen fluorescence polarization assay of steady-state GTP hydrolysis, leveraging a double point-mutant in the Gα enzyme to make GTP hydrolysis, rather than GDP (product) release, the rate-limiting step for multiple rounds of GTP conversion ([57], [59]). […] Titrating inputs of the double point-mutant (“DM”) Gαi1 and RGS-box recombinant proteins (Fig. S2, B and C) established a robust, medium-throughput assay for evaluating potential RGS14 and RGS12 inhibitors, with “assay quality” Z′ scores ([60]) above 0.76 for each target (Fig. S2D).
Reagents and protocols for the fluorescence anisotropy-based Transcreener GDP RGScreen assay using a rate-altered, double point-mutant, recombinant Gαi1 protein have been extensively described previously ([43], [44]); reactions were always performed so that total GTP converted over the time course was consistently less than 10% of reaction maximum input. Specific methods for its application in assessing RGS14 and RGS12 GAP activity are summarized as follows. Open-reading frames (ORFs) encoding wild-type versions of the human RGS14 RGS-box (aa 46–195 of UniProt O43566) and human RGS12 RGS-box (aa 695–843 of UniProt O14924) were each sub-cloned in-frame with an N-terminal hexahistidine (His6) expression tag in the plasmid pET30a, expressed in E. coli cultures, and then purified by nickel-nitriloacetate (Ni-NTA) and size-exclusion (Superdex 200) column chromatographies by GenScript using previously described methods ([35]). These recombinant His6-tag fusion proteins were stored at −80 °C in storage buffer (150 mM NaCl, 50 mM Tris-HCl pH 8.0, 10% glycerol) before thawing and use. Cysteine-less versions were similarly produced by ORF site-directed mutagenesis: for RGS14, codons for cysteine residues 47 and 130 (numbered as in PDB id 2JNU) were replaced with serine codons; for RGS12, codons for cysteines 4, 51, 78, and 134 (numbered in relation to PDB id 2EBZ) were replaced with serine codons. Use of Transcreener GDP-detection reagents to assess compound inhibition of Naegleria fowleri Gα7 protein GTPase activity ([83]) has previously been described ([84]).

Data set [4] can be described thus: Single-dose pharmacokinetic study, plasma and brain by LC-MS/MS. Conditions: 30 mg/kg IP after 50 mg/kg oral 1-aminobenzotriazole. Format: in vivo, male Swiss-Webster mice. The method, then:
Single-dose pharmacokinetic (PK) studies were conducted under IACUC-approved protocols of the UNTSCP Preclinical Services laboratory at the University of North Texas Health Science Center. Male Swiss-Webster (CFW) mice (∼30 g; Charles River) were used in both studies, housed in groups of three per cage with ad libitum access to food and water and acclimated for a minimum of 3 days prior to dosing. Each compound was evaluated in a single-dose, time-course design using three mice per time point across seven collection points (0.25, 0.5, 1, 2, 4, 8, and 24 h post-dose). For Z56944652, mice received a single intraperitoneal (IP) dose of 10 mg/kg (0.2 ml at 1.5 mg/ml). At each designated time point, mice were euthanized via CO2 inhalation, and blood was collected by cardiac puncture for plasma isolation (K2-EDTA tubes). Brains were aseptically removed, flash-frozen, and stored at −80 °C. For Z55628018, due to poor detection in preliminary studies, the protocol was modified to enhance systemic exposure. Mice were pre-dosed orally with 50 mg/kg of the pan-CYP inhibitor 1-aminobenzotriazole (ABT; ref. ([67])) 2 h prior to administration of Z55628018. The compound was then administered via IP injection at a single dose of 30 mg/kg (0.2 ml at […]). Sample collection and processing procedures were identical to those described above for Z56944652.
LC-MS/MS analyses were performed at UNTHSC using an Agilent 1260 Infinity HPLC system coupled to an Agilent 6460 Triple Quadrupole mass spectrometer equipped with Jet Stream electrospray ionization (ESI) in positive ion mode. Separation was carried out on a Poroshell 120 EC-C18 column (50 × 3.0 mm, 2.7 μm particle size) maintained at 30 °C, with a mobile phase consisting of 0.1% formic acid in water (A) and 0.1% formic acid in acetonitrile (B) under a standard gradient elution at a flow rate of 0.5 ml/min. The injection volume was 2 μl. Multiple reaction monitoring (MRM) transitions were optimized for each compound: Z56944652 was detected at m/z 353.1 → 227/132/126, and Z55628018 at m/z 391 → 134.8/247.9/132/121. The internal standard, carbamazepine, was monitored at m/z 237.2 → 167. Plasma samples (30–40 μl) were extracted with 1000 to 1200 μl of either acetonitrile or a 50:50 acetonitrile:methanol mixture containing carbamazepine (150–500 ng/ml), followed by vortexing, sonication, centrifugation, and supernatant collection for injection. Brain samples were homogenized in organic solvent (2 ml per 0.5 g tissue), vortexed, centrifuged, and processed using the same analytical workflow. Matrix-matched calibration curves were prepared using blank plasma or brain extract and validated over appropriate dynamic ranges: 0.09 to 46 μg/ml (plasma) and 0.547 to 70 ng/ml (brain) for Z56944652; 0.1 to 12.5 μg/ml (plasma) and 0.1 to 3.13 ng/ml (brain) for Z55628018. […] Retention times were 5.0 ± 0.01 min for Z56944652 and 3.3 ± 0.01 min for Z55628018, with the internal standard eluting at 4.0 ± 0.02 min.

Another data set relates to THP-1 cell line. In words: Cytotoxicity assays (CytoTox-Glo, CytoTox 96). In kind it is cell-based. The following applies: THP-1 cells, overnight, CytoTox-Glo and CytoTox 96. The method, then:
To evaluate cellular toxicity of active compounds, we employed the immortalized human monocytic THP1-Dual cell line (InvivoGen) in two orthogonal cytotoxicity assays: ATP-dependent luminescence (CytoTox-Glo) and colorimetric lactate dehydrogenase (LDH) release (CytoTox 96). For each assay, compounds were serially diluted 2-fold starting at 250 μM and added to 96-well flat-bottom tissue culture plates (Thermo Scientific Nunc, Cat# 165306). THP1-Dual cells were then seeded at 20,000 to 30,000 cells per well in 100 μl RPMI 1640 media supplemented with 10% fetal bovine serum (Gibco). Plates were gently mixed and incubated overnight at 37 °C in a humidified 5% CO2 incubator. For the CytoTox-Glo assay (Promega, Cat# G9291), 50 μl of assay reagent was added to each well. Plates were mixed briefly, sealed, and incubated at room temperature for 15 min before reading luminescence on a TECAN Infinite M1000 Pro plate reader to quantify dead-cell signal. Subsequently, 50 μl of a digitonin-containing lysis solution was added to each well, followed by a second luminescence read after 15 min to assess total cell content. Percent cytotoxicity was calculated per manufacturer instructions. For the CytoTox 96 Non-Radioactive Cytotoxicity Assay (Promega, Cat# G1780), after overnight compound treatment, LDH release into the culture medium was measured by adding the provided substrate mix. Absorbance was read at 490 or 492 nm within 1 h of adding the stop solution. Assay optimization and data normalization were conducted according to the manufacturer’s technical manual.

Numbering of substitutions follows the chain as printed. “Also recorded” adds a separate entry of the source. Where two headings read alike, the source gives them in different places.

On to `CN1C(=O)[C@@]23C[C@]4([C@]56C[C@@]78SS[C@@](CO)(C(=O)N7[C@H]5Nc5ccccc56)N(C)C8=O)c5ccccc5N[C@@H]4N2C(=O)[C@]1(CO)SS3` [chaetocin, reference compound], for which the IC50 in data set [1] (wild-type RGS14 RGS-box, read-out: IC50 against RGS14 RGS-box GAP activity) was 0.32 µM. In data set [2], the “inhibitory activity on cysteine-free RGS14 RGS-box (in words)” value is “largely lost”.

With `C1=C(c2cc3ccccc3o2)Nn2c(nnc2C2COc3ccccc3O2)S1` (centres unmarked) [Z55628018, 6-(1-benzofuran-2-yl)-3-(2,3-dihydro-1,4-benzodioxin-2-yl)-5H-[1,2,4]triazolo[3,4-b][1,3,4]thiadiazine], in data set [1] (values > 1.0 reflect RGS14 selectivity), the “Ratio (RGS14 pIC50 / RGS12 pIC50)” value turned out to be 0.92. For the same compound, the IC50 in data set [1] (wild-type RGS14 RGS-box GAP activity, Gαi1(DM), read-out: RGS14 pIC50 (converted)) was 14.5 µM; in data set [3], 5.75 µM. Also, in data set [4] (any time point), the brain tissue concentration entry is recorded as “No measurable concentrations; also recorded: undetectable”. The concentration at 1 h in data set [4] (male, Swiss-Webster (CFW), mouse, plasma, intraperitoneal, one of three mice, 1-h time point) is 0.17 µg/mL. The cytotoxicity result in the data set on THP-1 cell line is recorded as “Neither triazolothiadiazine derivative was observed to induce significant cell death”.

For the origin of these results see article PMC12495443, “Developing inhibitors of the guanosine triphosphate hydrolysis accelerating activity of Regulator of G protein Signaling-14 [drawing 1]” (The Journal of Biological Chemistry, 2025).
